Test results from patent US7511145B2 (Genelabs Technologies, Inc., priority 2003, dated 2009).

How the values were obtained:
[1] = cited from earlier work
[2] = target: T1, HCV-NS5b (Hepatitis C virus genotype 1b, UniProt Q9WMX2); assay: HCV-NS5b enzyme assay (incorporation of radiolabeled UTP); assay type: biochemical; details: for inhibition at 33 µM: enzyme inhibition at compound concentration of 33 uM; for inhibition at 100 µM: read-out: % inh@100, enzyme inhibition at compound concentration of 100 uM
T1 construct: (His)6 (C); made in house; host or cells: XL-1 cells (E. coli), IPTG-inducible plasmid, nickel-NTA purification
In short: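 His6-tagged NS5b lacking the C-terminal 21 residues, expressed in XL-1 and Ni-NTA purified. Reaction at pH 7.5 with 5 mM MgCl2, 10 μM each NTP including [3H]-UTP and biotinylated HCV heteropolymeric template, 2 h at 37° C; SPA read-out; % inhibition at 100 and 33 uM versus no-compound control, background subtracted.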

Structure (SMILES) | teratogenicity / embryotoxicity ([1]; human, in vivo) | patients with significant hemolysis ([1]; patients treated at currently recommended doses) | inhibition at 33 µM [2] [%] | inhibition at 100 µM [2] [%]
NC(=O)c1ncn([C@@H]2O[C@H](CO)[C@@H](O)[C@H]2O)n1 [Ribavirin, ribavirin] | teratogenic and embryotoxic | 10-20% | – | –
COc1cc(OC)cc(-c2ccc3cc(-c4nc5cc(C(=O)O)ccc5n4C4CCCCC4)ccc3n2)c1 [Compound 495, 1-cyclohexyl-2-[2-(3,5-dimethoxy-phenyl)-quinolin-6-yl]-1H-benzoimidazole-5-carboxylic acid] | – | – | 99.8 | 101
Nc1ccc(-c2ccc3cc(-c4nc5cc(C(=O)O)ccc5n4C4CCCCC4)ccc3n2)cc1Br [Compound 372, 2-[2-(4-amino-3-bromo-phenyl)-quinolin-6-yl]-1-cyclohexyl-1H-benzoimidazole-5-carboxylic acid] | – | – | 98.1 | 98.2
COc1ccc(-c2ccc(C)cc2)c(-c2ccc3cc(-c4nc5cc(C(=O)O)ccc5n4C4CCCCC4)ccc3n2)c1 [Compound 438, 1-cyclohexyl-2-[2-(4-methoxy-4′-methyl-biphen-2-yl)-quinolin-6-yl]-1H-benzoimidazole-5-carboxylic acid] | – | – | 98.7 | 99.6
O=C(O)c1ccc2c(c1)nc(-c1ccc3nc(-c4cc5c(cc4-c4ccc(Cl)cc4)OCCCO5)ccc3c1)n2C1CCCCC1 [Compound 565, 2-{2-[8-(4-chloro-phenyl)-3,4-dihydro-2H-benzo[b][1,4]dioxepin-7-yl]-quinolin-6-yl}-1-cyclohexyl-1H-benzoimidazole-5-carboxylic acid] | – | – | 102 | 100
COc1ccc(-c2ccccc2F)c(-c2ccc3cc(-c4nc5cc(C(=O)O)ccc5n4C4CCCCC4)ccc3n2)c1 [Compound 544, 1-Cyclohexyl-2-[2-(2′-fluoro-4-methoxy-biphen-2-yl)-quinolin-6-yl]-1H-benzoimidazole-5-carboxylic acid] | – | – | 102 | 100
O=C(O)c1ccc2c(c1)nc(-c1ccc3ncc(-c4ccccc4)cc3c1)n2C1CCCCC1 [Compound 206, 1-Cyclohexyl-2-(3-phenyl-quinolin-6-yl)-1H-benzoimidazole-5-carboxylic acid] | – | – | 94.2 | 96.9
O=C(O)CC[C@H](NC(=O)c1ccc2c(c1)nc(-c1ccc3nc(-c4ccccc4)cnc3c1)n2C1CCCCC1)C(=O)O [Compound 245, 2-{[1-Cyclohexyl-2-(2-phenyl-quinoxalin-6-yl)-1H-benzoimidazole-5-carbonyl]-amino}-pentanedioic acid] | – | – | 73.2 | 97.4
